According to US12702657B2, “Treatment and prevention of dengue disease” (Janssen Pharmaceuticals, Inc., priority 2019, dated 2026):

What was measured:
[1] = system: DENV-2/Rega lab strain; assay: AG129 mouse viremia model, high viral input (10^6 PFU), pre-exposure prophylaxis; assay type: in vivo, AG129 mice; details: day 3 p.i.; for viral load reduction in serum / median viral load reduction in serum: 10^6 PFU, vs vehicle
Description: The AG129 mouse model is a well-established model to study the antiviral effect of compounds against DENV in vivo (Zompi and Harris, 2012). These 129/Sv mice are deficient for both IFN-α/β and IFN-γ receptors, enabling peripheral viral replication upon intravenous (i.v.) or subcutaneous (s.c.) infection with DENV (Johnson and Roehrig, 1999). […]
Total RNA from serum was extracted using the NucleoSpin RNA virus kit according to the manufacturer's protocol (Macherey-Nagel, Düren, Germany). The viral RNA load was determined by one-step TaqMan RT-qPCR (master mix from Eurogentec, Seraing, Belgium). […]
In a similar setup as for the b.i.d. dosing studies, the in vivo efficacy was studied in the AG129 standard viremia model against DENV-2 with high viral inoculum and with compound (a) q.d. administration. Animals were i.p. infected with 10^6 PFU DENV-2/Rega lab strain in a volume of 200 μL. Animals were treated by administering compound (a) by oral gavage with a first administration at one hour prior to infection. The treatment continued for three consecutive days with one administration of compound (a) every 24 hours (once a day or q.d.). At day 3 post infection (p.i.), the mice were euthanized, and blood was collected (FIG. 3). The viral RNA load was determined as outlined in example 1.
The mice were divided in 5 groups (n=8/group) representing the following treatment regimens: • (i) Vehicle 80%/20% PEG400/H2O, • (ii) reference compound (2′CMC, 50 mg/kg per dose, b.i.d., s.c.), • (iii) compound (a): 0.3 mg/kg/dose q.d. • (iv) compound (a): 3 mg/kg/dose q.d. • (v) compound (a): 30 mg/kg/dose q.d. […]
The mice were divided in several groups (n=8/group for the viremia study and n=10/group for the survival study) representing the following treatment regimens: • (i) vehicle, 80%/20% PEG400/H2O • (ii) compound (b): 30 mg/kg/dose b.i.d. • (iii) compound (b): 10 mg/kg/dose b.i.d. • (iv) compound (b): 3 mg/kg/dose b.i.d. • (v) compound (b): 1 mg/kg/dose b.i.d.

[2] = system: DENV-2/Rega lab strain; assay: AG129 mouse viremia model, low viral input (10^2 PFU), viral load kinetics, pre-exposure prophylaxis; assay type: in vivo, AG129 mice; details: for median serum viral load over all 11 days: LOD=2.59 log10 copies/mL
Experimental: In this experiment, lower viral inputs were used (10^2 PFU), compared with the standard viremia experiments with a high viral input (10^6 PFU). 10^2 PFU was selected as it was the lowest viral load leading to a Dengue infection in the mouse model. Using a lower viral input still results in 100% infection of the mice, but the peak viral load is postponed with 1 to 2 days, which more closely mimics a natural human infection (Clapham et al., 2014 and Sim et al., 2015). The mice were treated during 6 consecutive days.
Animals were infected i.p. with 10^2 PFU DENV-2/Rega lab strain and treated for six consecutive days twice daily with compound (a) by oral gavage (FIG. 5).
The mice were divided in four treatment groups (n=16/group) representing the following treatment regimens: • (i) Vehicle 80%/20% PEG400/H2O, • (ii) compound (a): 10 mg/kg/dose b.i.d. p.o. • (iii) compound (a): 1 mg/kg/dose b.i.d. p.o. • (iv) compound (a): 0.1 mg/kg/dose b.i.d. p.o.
Daily blood samples were collected to follow the viral load over time. Blood collection, for viral RNA load detection, was performed in two alternating sub-groups of mice. Each sub-group comprised half of the mice (n/2=8) from each of the treatment groups (i) to (iv). Blood was collected from a first sub-group at day 1, 3, 5 and 8 p.i. and from a second sub-group at day 2, 4, 6 and 11 p.i. At day 8 p.i., mice of the first sub-group were sacrificed while those of the second sub-group were sacrificed at day 11 p.i. […]
Alternating sub-groups were used to enable daily blood collections. Blood for viral RNA load detection was collected from mice in two alternating sub-groups. Each sub-group comprised half of the mice (n/2=8) from each of the treatment groups (i-vi). Blood was collected from a first sub-group at days 1, 3, 5 and 8 p.i. and from a second sub-group at days 2, 4, 6 and 11 p.i. Blood collection was always performed just before the next administration of the compound. At day 8 p.i., half of the mice in each treatment group (n=8/group) were sacrificed. The remaining mice in each treatment group (n=8/group) were sacrificed at day 11 p.i (FIG. 16 Y).

Compound: COc1cc(NC(C(=O)c2c[nH]c3ccc(OC(F)(F)F)cc23)c2ccc(Cl)cc2OC)cc(S(C)(=O)=O)c1 (stereo not drawn) [compound (a)]
- viral load reduction in serum ([1]; 0.1 mg/kg/dose b.i.d. p.o.): 0.47 log10 copies/mL
- median viral load reduction in serum ([1]; 0.3 mg/kg/dose q.d. p.o.): 0.7 log10 copies/mL
- median viral load reduction in serum ([1]; 3 mg/kg/dose q.d. p.o.): 3.1 log10 copies/mL
- viral load reduction in serum ([1]; 30 mg/kg/dose b.i.d. p.o.): 4.4 log10 copies/mL
- median viral load reduction in serum ([1]; 30 mg/kg/dose q.d. p.o.): 4.5 log10 copies/mL
- viral load reduction in serum compared with the vehicle-treated group, significance ([1]; all doses except 0.1 (0.3, 1, 3, 10, 30 mg/kg/dose b.i.d.), p<0.001): significant viral load reduction
- delay of peak viral load versus vehicle ([2]; 0.1 mg/kg/dose b.i.d. p.o., 6 days, 10^2 PFU): ~ 1 day
- viral load reduction compared with vehicle ([2]; 0.1 mg/kg/dose b.i.d. p.o., day 5, 10^2 PFU): 0.50 log10 copies/mL
- viral load over time ([2]; 0.1 mg/kg/dose q.d. p.o., 10^2 PFU): comparable to the vehicle-treated viral load curve
- viral load reduction compared to vehicle-treated mice ([2]; 0.3 mg/kg/dose q.d. p.o., day 5, 10^2 PFU): 1.6 log10 copies/mL
- course of viral load after day 5 ([2]; 0.3 mg/kg/dose q.d. p.o., up to day 11, 10^2 PFU): no further decline in viral load up to day 11
- median serum viral load over all 11 days ([2]; 0.6 mg/kg/dose q.d. p.o., 6 days, 10^2 PFU): undetectable levels
- viral load in the mice over all the days ([2]; 1 mg/kg/dose b.i.d. p.o., 6 days, 10^2 PFU): undetectable levels
- median serum viral load over all 11 days ([2]; 1 mg/kg/dose q.d. p.o., 6 days, 10^2 PFU, 1 viral rebound at day 8): undetectable levels
- median viral load at viral rebound ([2]; 1 mg/kg/dose q.d. p.o., day 8, 10^2 PFU): 3.78 log10 copies/mL
- median serum viral load over all 11 days ([2]; 3 mg/kg/dose q.d. p.o., 6 days, 10^2 PFU): undetectable levels
- viral load in the mice over all the days ([2]; 10 mg/kg/dose b.i.d. p.o., 6 days, 10^2 PFU): undetectable levels
- median serum viral load over all 11 days ([2]; 10 mg/kg/dose q.d. p.o., 6 days, 10^2 PFU): undetectable levels
- median serum viral load over all 11 days ([2]; 30 mg/kg/dose q.d. p.o., 6 days, 10^2 PFU): undetectable levels

Compound: COc1cc(NC(C(=O)N2CCc3ccc(OC(F)(F)F)cc32)c2ccc(Cl)cc2)cc(OCCCC(=O)O)c1 (stereo not drawn) [compound (b)]
- viral load reduction in serum ([1]; compound (b) 1 mg/kg per dose b.i.d. p.o.): 0.70 log10 copies/mL
- viral load reduction in serum ([1]; compound (b) 30 mg/kg per dose b.i.d. p.o.): 3.8 log10 copies/mL
- viral load reduction compared with the vehicle-treated group, significance ([1]; compound (b), all four doses (1, 3, 10, 30 mg/kg per dose b.i.d.), p<0.05): significant viral load reduction
- reduction of viral RNA levels at peak viremia ([2]; compound (b) 0.3 mg/kg b.i.d. p.o., 10^2 PFU): 0.8 log10
- reduction of viral RNA levels at peak viremia ([2]; compound (b) 1 mg/kg b.i.d. p.o., 10^2 PFU): 1.8 log10
- viral RNA levels in serum ([2]; compound (b) 3 mg/kg/dose b.i.d. p.o., 6 days, 10^2 PFU): undetectable levels
- viral RNA levels in serum ([2]; compound (b) 10 mg/kg/dose b.i.d. p.o., 6 days, 10^2 PFU): undetectable levels
- viral RNA levels in serum ([2]; compound (b) 30 mg/kg/dose b.i.d. p.o., 6 days, 10^2 PFU): undetectable levels
